Reference: ChEMBL document CHEMBL1201862, “PubChem BioAssay data set” (2004)
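The compound was tested at five concentrations on cells cultured in 96-well plates, with a 48-hour exposure period. The concentration for 50% growth inhibition is given as GI50.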 Activity calls are given as the source filed them. Cut-off read from the data, not from the text of the source: active = GI50 up to about 1.1 µM and inactive = higher.

How the values were obtained:
Test in all cases: NCI tumour cell line growth inhibition, 48 h
[1] = tested on: DMS-273
[2] = tested on: XF498
[3] = tested on: BT-549
[4] = tested on: DU-145
[5] = tested on: MCF7
[6] = tested on: MDA-MB-231
[7] = tested on: NCI/ADR-RES
[8] = tested on: LXFL 529

Cc1ccc2oc(=O)c(-c3ccccc3)nc2c1
GI50 [1]: 17.6 µM (inactive) | GI50 [2]: 33.7 µM (inactive)

O=C1NC(=O)C(CC2CCCCCCCCCCC2=O)C(=O)N1 (stereo unspecified)
GI50 [3]: > 100 µM (inactive) | GI50 [4]: > 100 µM (inactive) | GI50 [5]: > 100 µM (inactive) | GI50 [6]: > 100 µM (inactive) | GI50 [7]: > 100 µM (inactive)

CC(C)=C[C@@H]1C[C@H](C)[C@H]2CC[C@H](C)[C@H]3C(=O)C(O)=C(C)C(=O)[C@]123
GI50 [3]: > 100 µM (inactive) | GI50 [4]: > 100 µM (inactive) | GI50 [5]: > 100 µM (inactive) | GI50 [6]: > 100 µM (inactive) | GI50 [7]: > 100 µM (inactive)

CCCCCCOP(=O)(OCCCCCC)C(NC(=O)OCC)(C(F)(F)F)C(F)(F)F
GI50 [3]: 22.5 µM (inactive) | GI50 [4]: 93.1 µM (inactive) | GI50 [5]: 37.2 µM (inactive) | GI50 [6]: 24.3 µM (inactive) | GI50 [7]: 28.8 µM (inactive)

COc1ccc(-c2oc3cc(-c4cc5oc(-c6ccc(OC)cc6)c(-c6ccc(OC)cc6)c5cc4OC)c(OC)cc3c2-c2ccc(OC)cc2)cc1
GI50 [3]: > 100 µM (inactive) | GI50 [4]: > 100 µM (inactive) | GI50 [5]: > 100 µM (inactive) | GI50 [6]: > 100 µM (inactive) | GI50 [7]: > 100 µM (inactive)

CC(=O)OC(C)C(=O)C1c2cccc(O)c2C(=O)c2c(O)cc(C)cc21 (stereo unspecified)
GI50 [1]: 0.634 µM (active) | GI50 [2]: 0.234 µM (active)

COc1ccc(CCn2ccc(C)n2)c(OC)c1
GI50 [3]: > 100 µM (inactive) | GI50 [4]: > 100 µM (inactive) | GI50 [5]: > 100 µM (inactive) | GI50 [6]: > 100 µM (inactive) | GI50 [7]: 90.2 µM (inactive)

C/C(CC(O)(C(F)(F)F)C(F)(F)F)=N/Nc1ccc([N+](=O)[O-])cc1[N+](=O)[O-]
GI50 [4]: 2.29 µM (inactive) | GI50 [5]: 2.97 µM (inactive) | GI50 [6]: 2.28 µM (inactive) | GI50 [7]: 2.85 µM (inactive)

COc1ccc(NC2Oc3cc4c(cc3C(c3cc(OC)c(O)c(OC)c3)C2C)OCO4)cc1 (stereo unspecified)
GI50 [3]: 10.4 µM (inactive) | GI50 [4]: 7.4 µM (inactive) | GI50 [5]: 5.71 µM (inactive) | GI50 [6]: 2.65 µM (inactive) | GI50 [7]: 5.66 µM (inactive)

C=C1N(C)c2ccc(S(=O)(=O)c3ccc4c(c3)C(C)(C)C(=C)N4C)cc2C1(C)C
GI50 [3]: 26.1 µM (inactive) | GI50 [4]: 60 µM (inactive) | GI50 [5]: 29 µM (inactive) | GI50 [6]: 33.6 µM (inactive) | GI50 [7]: 59 µM (inactive)

CC(CO)(CO)N1C(=O)C2C3C=CC(C3)C2C1=O (stereo unspecified)
GI50 [4]: > 100 µM (inactive) | GI50 [5]: > 100 µM (inactive) | GI50 [6]: > 100 µM (inactive) | GI50 [7]: > 100 µM (inactive)

CSCCC(NC(=O)OCc1ccccc1)NC(=O)OCc1ccccc1
GI50 [4]: > 100 µM (inactive) | GI50 [6]: > 100 µM (inactive) | GI50 [7]: > 100 µM (inactive)

O=C(CC/C(C/C(=N/O)c1ccc(F)cc1)=N/O)N(Cc1ccccc1)Cc1ccccc1
GI50 [1]: > 100 µM (inactive) | GI50 [8]: > 100 µM (inactive)

CN(C)CCC1(C2=CCCC2)CC/C(=C\c2ccccc2)C1=O (stereo unspecified)
GI50 [1]: 15.7 µM (inactive) | GI50 [8]: 16.1 µM (inactive)

C=C(C)COc1ccc2c(c1)CCC1C2CCC2(C)C(=O)/C(=N/O)CC12 (stereo unspecified)
GI50 [3]: 6.41 µM (inactive) | GI50 [4]: 2.12 µM (inactive) | GI50 [5]: 2.9 µM (inactive) | GI50 [6]: 1.66 µM (inactive) | GI50 [7]: 4.27 µM (inactive)

CC12CCC3C(CCC4=CC(O)CCC43C=O)C1(O)CCC2c1ccc(=O)oc1 (stereo unspecified)
GI50 [1]: 0.00497 µM (active) | GI50 [5]: 0.05 µM (active) | GI50 [7]: 0.0253 µM (active)

O=S(=O)(N/C(=N\O)Nc1ccc(Cl)cc1)c1cc2ccccc2s1
GI50 [3]: 17.1 µM (inactive) | GI50 [4]: 20.9 µM (inactive) | GI50 [6]: 17.3 µM (inactive) | GI50 [7]: 20.2 µM (inactive)

NC(=O)c1oc([N+](=O)[O-])c(-c2ccccc2)c1-c1ccccc1
GI50 [3]: 8 µM (inactive) | GI50 [4]: 26.9 µM (inactive) | GI50 [5]: 29.5 µM (inactive) | GI50 [6]: 13.5 µM (inactive) | GI50 [7]: 19.4 µM (inactive)

C[C@]12CC[C@H](OC(=O)Cc3ccc(N(CCCl)CCCl)cc3)CC1=CC[C@@H]1[C@@H]2CC[C@]2(C)C(=O)CC[C@@H]12
GI50 [3]: > 100 µM (inactive) | GI50 [4]: > 100 µM (inactive) | GI50 [5]: > 100 µM (inactive) | GI50 [6]: > 100 µM (inactive) | GI50 [7]: > 100 µM (inactive)

COc1cc(C=O)cc(/C=N/c2ccc(S(N)(=O)=O)cc2)c1O
GI50 [3]: 6.73 µM (inactive) | GI50 [4]: 40.1 µM (inactive) | GI50 [5]: > 100 µM (inactive) | GI50 [6]: 20.4 µM (inactive) | GI50 [7]: 10.5 µM (inactive)

CCOC(=O)N/N=C(/N)Cc1ccccc1
GI50 [3]: > 100 µM (inactive) | GI50 [4]: > 100 µM (inactive) | GI50 [5]: > 100 µM (inactive) | GI50 [6]: > 100 µM (inactive) | GI50 [7]: > 100 µM (inactive)

CC1(C)C2CCC1(C)[C@H](O)[C@H]2Nc1cc(C(F)(F)F)cc(C(F)(F)F)c1 (stereo partly specified)
GI50 [3]: 3.91 µM (inactive) | GI50 [4]: 3.66 µM (inactive) | GI50 [5]: > 100 µM (inactive) | GI50 [6]: 4.53 µM (inactive) | GI50 [7]: 3.07 µM (inactive)

COc1ccc(C2c3cc4c(cc3OC(N3CCOCC3)C2C)OCO4)cc1OC (stereo unspecified)
GI50 [3]: 7.48 µM (inactive) | GI50 [4]: 9.42 µM (inactive) | GI50 [5]: 4.97 µM (inactive) | GI50 [6]: 16.2 µM (inactive) | GI50 [7]: 3.61 µM (inactive)

C=C(Cl)C(Br)(CCl)CCC(Br)C(C)(C)Cl (stereo unspecified)
GI50 [3]: 2.52 µM (inactive) | GI50 [4]: 13.7 µM (inactive) | GI50 [5]: 3.38 µM (inactive) | GI50 [6]: 1.64 µM (inactive) | GI50 [7]: 3.17 µM (inactive)
